In patent US9829481B2, “Senescence tracers” (Eberhard Karls Universitaet Tuebingen Medizinische Fakultaet, priority 2012, dated 2017):

Experiments:
Type in all cases: cell-based
[1] = tested on: MCF7 cells (breast cancer cell line); assay: Senescence β-galactosidase staining, light microscopy; conditions: 250 nM Doxorubicin for 24 hours
Protocol: FIG. 2: Light microscope pictures of β-gal-stained HCT116 and MCF7 cells with and with out 250 nM Doxorubicin treatment.
To stimulate HCT116 (colorectal carcinoma cell line) cells and MCF7 (breast cancer cell line) cells for senescence β-galactosidase staining, the cells were treated with 250nM Doxorubicin for 24 hours. Doxorubicin interacts with DNA by intercalation and inhibits the progression of the enzyme topoisonerase II.

[2] = tested on: HCT116 cells (colorectal carcinoma cell line); assay: Lysosome staining with LysoTracker; conditions: presence vs absence of Doxorubicin
From the text: (§1) FIG. 3: Graph of staining signals obtained for HCT116 and MCF7 cells stained with LysoTracker® both in the presence and absence of Doxorubicin.

[3] = tested on: MCF7 cells (breast cancer cell line); assay: Lysosome staining with LysoTracker; conditions: presence vs absence of Doxorubicin
From the text: as §1

[4] = tested on: HCT116 cells (colorectal carcinoma cell line); assay: FACS analysis of labelling of senescent (Doxorubicin-treated) cells; conditions: with vs without 250 nM Doxorubicin, labeled with 40 ng/ml compound, 20 min, 37° C., 5% CO2
Protocol: (§2) FIG. 1: FACS-analysis data of the compound of Example 5 in HCT116 cells (colorectal carcinoma cell line) and MCF7 cells (breast cancer cell line) with and with out 250 nM Doxorubicin treatment.
(§3) MCF7 cells with (senescence +) and without 250 nM Doxorubicin treatment. The cells were incubated 20 min in 37° C. with 5% CO2.
(§4) To show the capability of the compounds of the invention to mark and visualise senescent cells, HCT116 cells (colorectal carcinoma cell line) and MCF7 cells (breast cancer cell line) were incubated 20 min at 37° C. with 5% CO2 in the presence and absence of Doxorubicin. The cells were then labeled with 40 ng/ml of the compound of Example 5.
(§5) To show the capability of the compounds of the invention to mark and visualise senescent cells, HCT116 cells (colorectal carcinoma cell line) and MCF7 cells (breast cancer cell line) were incubated 20 min in 37° C. with 5% CO2. The cells were then labeled with 40 ng/ml of the compound of Example 2.

[5] = tested on: MCF7 cells (breast cancer cell line); assay: as above; conditions: with vs without 250 nM Doxorubicin, labeled with 40 ng/ml compound, 20 min, 37° C., 5% CO2
Protocol: as §2, §3, §4, §5

SMILES	β-gal expression (senescence staining) [1]	lysosome staining signal compared to untreated cells [2]	lysosome staining signal compared to untreated cells [3]	enrichment of the labeled compound in Doxorubicin-treated (senescent) cells (FACS) [4]	enrichment of the labeled compound in Doxorubicin-treated (senescent) cells (FACS) [5]
COc1cccc2c1C(=O)c1c(O)c3c(c(O)c1C2=O)C[C@@](O)(C(=O)CO)C[C@@H]3O[C@H]1C[C@H](N)[C@H](O)[C@H](C)O1 [Doxorubicin]	strong expression of β-gal	enhanced positive lysosome staining	enhanced positive lysosome staining	–	–
CN(C)c1cccc2c(S(=O)(=O)NCCNc3ccnc4cc(Cl)ccc34)cccc12 [Example 2]	–	–	–	enhanced enrichment	enhanced enrichment
CCN(CC)c1ccc2nc3c4cc(OCCCS[C@H]5O[C@@H](C)[C@@H](O)[C@@H](O)[C@@H]5O)ccc4c(=O)cc-3oc2c1 [Example 5]	–	–	–	–	enhanced enrichment
